Results as given in PubChem BioAssay (NCI).
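Step 1: Grow cells in 96-well plates. Step 2: Expose to compound for 48 hours at 5 concentrations. Step 3: Interpolate endpoints linearly; if unreached, use highest concentration. GI50 marks 50% less growth. TGI: concentration producing complete growth inhibition.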

Legend:
Test in all cases: inhibition of tumour cell growth, NCI panel, 48 h
A498 renal = tested on: A498 renal
HCT-15 colon = tested on: HCT-15 colon
MALME-3M melanoma = tested on: MALME-3M melanoma
NCI-H522 lung = tested on: NCI-H522 lung
RXF 393 renal = tested on: RXF 393 renal
TK-10 renal = tested on: TK-10 renal
UACC-257 melanoma = tested on: UACC-257 melanoma
UACC-62 melanoma = tested on: UACC-62 melanoma
PC-3 prostate = tested on: PC-3 prostate
DU-145 prostate = tested on: DU-145 prostate

CC(C)=[CH][Sb]([Br])([CH]=C(C)C)([CH]=C(C)C)[CH]=C(C)C
GI50 (A498 renal): 41 µM
TGI (A498 renal): > 100 µM
GI50 (HCT-15 colon): > 100 µM
TGI (HCT-15 colon): > 100 µM
GI50 (MALME-3M melanoma): 5.28 µM
TGI (MALME-3M melanoma): > 100 µM
GI50 (NCI-H522 lung): 1.5 µM
TGI (NCI-H522 lung): 20.2 µM
GI50 (RXF 393 renal): 21.2 µM
TGI (RXF 393 renal): 81.1 µM
GI50 (TK-10 renal): 34.9 µM
TGI (TK-10 renal): > 100 µM
GI50 (UACC-257 melanoma): 4.87 µM
TGI (UACC-257 melanoma): > 100 µM
GI50 (UACC-62 melanoma): 11.1 µM
TGI (UACC-62 melanoma): > 100 µM

Cc1cccc(C(C)(C)C)c1NC(=O)CCc1n[nH]c(=S)o1
TGI (A498 renal): > 100 µM
TGI (HCT-15 colon): 49 µM
TGI (MALME-3M melanoma): > 100 µM
TGI (NCI-H522 lung): > 100 µM
TGI (TK-10 renal): > 100 µM
TGI (UACC-257 melanoma): > 100 µM
TGI (UACC-62 melanoma): > 100 µM

O=C1C2=C(CC3C(C2)C3(Br)Br)C(=O)C2=C1CC1C(C2)C1(Br)Br (stereo not given)
TGI (A498 renal): > 100 µM
TGI (HCT-15 colon): > 100 µM
TGI (MALME-3M melanoma): > 100 µM
TGI (NCI-H522 lung): > 100 µM
TGI (RXF 393 renal): > 100 µM
TGI (TK-10 renal): > 100 µM
TGI (UACC-257 melanoma): > 100 µM
TGI (UACC-62 melanoma): > 100 µM

CSc1ccc(/C=C2/C[N+](C)(C)C/C(=C/c3ccc(SC)cc3)C2=O)cc1
TGI (HCT-15 colon): > 100 µM
TGI (MALME-3M melanoma): 27.5 µM
TGI (NCI-H522 lung): 21.3 µM
TGI (RXF 393 renal): 31.6 µM
TGI (TK-10 renal): > 100 µM
TGI (UACC-257 melanoma): 37.8 µM

NCCCNCCSSCCCCS(=O)O
TGI (A498 renal): > 100 µM
TGI (HCT-15 colon): > 100 µM
TGI (MALME-3M melanoma): 49.2 µM
TGI (NCI-H522 lung): 32.3 µM
TGI (RXF 393 renal): 79.8 µM
TGI (TK-10 renal): > 100 µM
TGI (UACC-257 melanoma): 78.5 µM
TGI (UACC-62 melanoma): 34.8 µM

COc1cc(Cc2cc(OC)c(OC)c(OC)c2)ccc1O
TGI (HCT-15 colon): > 100 µM
TGI (MALME-3M melanoma): 12 µM
TGI (NCI-H522 lung): 39.5 µM
TGI (TK-10 renal): > 100 µM
TGI (UACC-257 melanoma): > 100 µM
TGI (UACC-62 melanoma): > 100 µM

COc1cc(C(=O)O[C@H](C(N)=O)[C@]2(C)CO2)c2ccccc2c1
GI50 (HCT-15 colon): 23.8 µM
TGI (HCT-15 colon): 70.6 µM
GI50 (MALME-3M melanoma): 16.2 µM
TGI (MALME-3M melanoma): 36.5 µM
GI50 (NCI-H522 lung): 33.2 µM
TGI (NCI-H522 lung): > 100 µM
GI50 (PC-3 prostate): 25 µM
TGI (PC-3 prostate): > 100 µM
GI50 (RXF 393 renal): 17.3 µM
TGI (RXF 393 renal): 47.3 µM
GI50 (TK-10 renal): 19.7 µM
TGI (TK-10 renal): 37.5 µM
GI50 (UACC-257 melanoma): 31.8 µM
TGI (UACC-257 melanoma): > 100 µM
GI50 (UACC-62 melanoma): 15.9 µM
TGI (UACC-62 melanoma): 29.8 µM

CCN(CC)C(=O)C/C(C)=N/NC(=O)c1ccncc1
TGI (MALME-3M melanoma): > 100 µM
TGI (NCI-H522 lung): > 100 µM
TGI (RXF 393 renal): > 100 µM
TGI (TK-10 renal): > 100 µM
TGI (UACC-257 melanoma): > 100 µM
TGI (UACC-62 melanoma): > 100 µM

CCOC(=O)NC(=O)c1cn(CCCOC(=O)NCCCCCCNC(=O)OCCCn2c(=O)c(C(=O)NC(=O)OCC)cn(C)c2=O)c(=O)n(C)c1=O
TGI (A498 renal): > 100 µM
TGI (HCT-15 colon): > 100 µM
TGI (MALME-3M melanoma): > 100 µM
TGI (NCI-H522 lung): > 100 µM
TGI (RXF 393 renal): 92.4 µM
TGI (TK-10 renal): > 100 µM
TGI (UACC-257 melanoma): > 100 µM
TGI (UACC-62 melanoma): > 100 µM

COC(=O)C1=C(c2ccc3c(c2)OCO3)O[C@H](c2ccc3c(c2)OCO3)[C@H]1COC(C)=O
TGI (A498 renal): 59.6 µM
TGI (HCT-15 colon): > 100 µM
TGI (MALME-3M melanoma): > 100 µM
TGI (RXF 393 renal): > 100 µM
TGI (TK-10 renal): > 100 µM
TGI (UACC-257 melanoma): > 100 µM
TGI (UACC-62 melanoma): > 100 µM

COC(=O)CSc1n[nH]c(-c2ccc(O)c([N+](=O)[O-])c2)n1
TGI (A498 renal): > 100 µM
TGI (HCT-15 colon): > 100 µM
TGI (MALME-3M melanoma): > 100 µM
TGI (RXF 393 renal): > 100 µM
TGI (TK-10 renal): > 100 µM
TGI (UACC-257 melanoma): > 100 µM
TGI (UACC-62 melanoma): > 100 µM

CC(C)=CC(=O)N1CCN(C(=O)C=C(C)C)CC1
TGI (A498 renal): > 100 µM
TGI (HCT-15 colon): > 100 µM
TGI (NCI-H522 lung): > 100 µM
TGI (TK-10 renal): > 100 µM
TGI (UACC-257 melanoma): > 100 µM
TGI (UACC-62 melanoma): > 100 µM

O=S(O)CCCCSSCCCCSSCCCCS(=O)O
TGI (A498 renal): > 100 µM
TGI (HCT-15 colon): > 100 µM
TGI (MALME-3M melanoma): 84.2 µM
TGI (NCI-H522 lung): 35.6 µM
TGI (RXF 393 renal): > 100 µM
TGI (TK-10 renal): 91.4 µM
TGI (UACC-257 melanoma): > 100 µM
TGI (UACC-62 melanoma): 55.3 µM

COc1cc2c3c(n(CCCCl)c(=O)c2cc1OC)-c1ccccc1C3=O
GI50 (DU-145 prostate): > 100 µM
TGI (DU-145 prostate): > 100 µM
GI50 (HCT-15 colon): > 100 µM
TGI (HCT-15 colon): > 100 µM
GI50 (NCI-H522 lung): 5.31 µM
TGI (NCI-H522 lung): > 100 µM
GI50 (PC-3 prostate): > 100 µM
TGI (PC-3 prostate): > 100 µM
GI50 (TK-10 renal): 19.6 µM
TGI (TK-10 renal): 68.6 µM
GI50 (UACC-257 melanoma): 10.2 µM
TGI (UACC-257 melanoma): > 100 µM
GI50 (UACC-62 melanoma): 12.4 µM
TGI (UACC-62 melanoma): 54.9 µM

CCCCCCCCCCCCCCCCOP(=O)(O)Oc1ccc(/C=C\c2ccc(OP(=O)(O)OCCCCCCCCCCCCCCCC)cc2)cc1
TGI (A498 renal): > 100 µM
TGI (HCT-15 colon): > 100 µM
TGI (MALME-3M melanoma): > 100 µM
TGI (NCI-H522 lung): > 100 µM
TGI (RXF 393 renal): 9.1 µM
TGI (TK-10 renal): 72.4 µM
TGI (UACC-257 melanoma): > 100 µM
TGI (UACC-62 melanoma): > 100 µM

COc1ccc(C(=O)O)c(Cc2cccc3ccccc23)c1
TGI (HCT-15 colon): > 100 µM
TGI (MALME-3M melanoma): > 100 µM
TGI (NCI-H522 lung): > 100 µM
TGI (RXF 393 renal): > 100 µM
TGI (TK-10 renal): > 100 µM
TGI (UACC-257 melanoma): > 100 µM
TGI (UACC-62 melanoma): > 100 µM

CNC=O.[O]=[Ge].[O]=[Ge].[O]=[Ge].[O]=[Ge][OH].[O]=[Ge][OH]
TGI (A498 renal): > 100 µM
TGI (HCT-15 colon): > 100 µM
TGI (MALME-3M melanoma): > 100 µM
TGI (RXF 393 renal): > 100 µM
TGI (TK-10 renal): > 100 µM
TGI (UACC-257 melanoma): > 100 µM
TGI (UACC-62 melanoma): > 100 µM
